Calls of active or inactive are those of the source.
Tests used:
[1] = loss of viability in HepG2 cells – cell-based, CellTiter-Glo, cherry-picked, cytotoxicity control for Shn3 inhibitor project, dose response (AID 624134); format: functional
[2] = non-specific 3'UTR reporter inhibition in Clone20-Shn3RL – cell-based, Renilla luciferase, cherry-picked, counter-screen for Shn3 inhibitor project, dose response (AID 624133); format: functional
[3] = reduction of Shn3 3'UTR-driven luciferase in osteoblasts – cell-based, Clone20 osteoblasts, firefly luciferase, cherry-picked, dose response (AID 624132); format: functional;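 note: firefly luciferase luminescence from reporter carrying the Shn3 3'UTR in osteoblasts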
INS1 = assay: INS-1E survival protection against cytokine death – cell-based, luminescence, retest, dose response (AID 449756); format: functional; settings: Rattus norvegicus;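 note: cell death triggered by IL-1 beta plus TNF-alpha plus IFN-gamma mixture; protective hits raise ATP signal compared with cytokine alone wells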
Orexin receptor type 2 [4] = target: T1, Orexin receptor type 2 (Homo sapiens, UniProt O43614); assay: Counterscreen assay for antagonists of the orexin 1 receptor (OX1R; HCRTR1): Homogeneous Time Resolved Fluorescence (HTRF)-based cell-based dose response assay for antagonists of the orexin 2 receptor (OX2R; HCRTR2), run by assay provider.; format: functional
T1 sequence (O43614 whole entry): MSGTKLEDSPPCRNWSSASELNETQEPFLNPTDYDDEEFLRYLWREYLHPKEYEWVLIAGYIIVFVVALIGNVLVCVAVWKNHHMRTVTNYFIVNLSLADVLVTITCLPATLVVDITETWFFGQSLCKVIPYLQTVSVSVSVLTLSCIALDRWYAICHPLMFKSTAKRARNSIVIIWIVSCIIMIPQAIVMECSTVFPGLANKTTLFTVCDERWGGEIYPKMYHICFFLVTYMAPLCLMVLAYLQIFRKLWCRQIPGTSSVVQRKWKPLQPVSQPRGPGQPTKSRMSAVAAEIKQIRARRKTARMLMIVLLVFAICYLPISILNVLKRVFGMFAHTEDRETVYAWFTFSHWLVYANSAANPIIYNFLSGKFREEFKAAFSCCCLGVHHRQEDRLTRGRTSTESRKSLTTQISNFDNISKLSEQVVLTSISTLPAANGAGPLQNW

[5] = target: Sphingosine 1-phosphate receptor 2 (Homo sapiens, UniProt O95136); assay: Dose Response Cell Based Assay for Antagonists of the S1P2 Receptor. [Related pubchem assays: 856, 736 ]; format: functional
[6] = HEK-293T viability loss, compound-treated – cell-based, uHTS hits, cytotoxicity control for B/T-cell NF-kB inhibitor project, dose response (AID 489019); format: functional;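 note: IC50 reflects cytotoxicity as loss of cell viability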
CHO-K1 = assay: (§1) Counterscreen for antagonists of the orexin 1 receptor (OX1R; HCRTR1): Homogeneous time resolved fluorescence (HTRF)-based cell-based dose response assay to identify antagonists of the parental CHO-K1 cell line. [Related pubchem assays (depositor defined):AID434989, AID435008, AID463079, AID485270, AID492963, AID492964, AID492965, AID493232, AID504699, AID504701]; format: functional; settings: Cricetulus griseus
[7] = target: T2, Microphthalmia-associated transcription factor (Homo sapiens, UniProt O75030); assay: reducers of TRPM1 reporter luminescence, concentration series – cell-based, SK-MEL-5, cherry-picked, set 3, MITF inhibitor project, dose response (AID 493073); format: functional;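 note: SK-MEL-5 melanoma cells with luciferase driven by the MITF target TRPM1 promoter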
T2 sequence (O75030 whole entry): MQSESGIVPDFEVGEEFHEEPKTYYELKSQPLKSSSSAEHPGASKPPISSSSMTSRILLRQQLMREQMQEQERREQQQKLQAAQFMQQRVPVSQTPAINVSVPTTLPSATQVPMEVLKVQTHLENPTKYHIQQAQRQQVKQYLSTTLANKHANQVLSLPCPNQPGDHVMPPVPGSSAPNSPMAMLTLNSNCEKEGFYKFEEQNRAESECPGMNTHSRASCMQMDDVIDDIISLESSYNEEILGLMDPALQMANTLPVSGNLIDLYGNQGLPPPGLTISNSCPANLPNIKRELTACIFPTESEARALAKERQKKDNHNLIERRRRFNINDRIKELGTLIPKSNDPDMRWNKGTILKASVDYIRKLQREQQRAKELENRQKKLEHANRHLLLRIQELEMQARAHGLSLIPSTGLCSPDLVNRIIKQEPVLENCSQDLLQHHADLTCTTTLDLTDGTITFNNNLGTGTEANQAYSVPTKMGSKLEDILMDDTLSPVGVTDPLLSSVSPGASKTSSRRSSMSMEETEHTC

Orexin receptor type 2 [8] = target: T1, Orexin receptor type 2; assay: Counterscreen assay for antagonists of the orexin 1 receptor (OX1R; HCRTR1): Fluorescence-based cell-based dose response assay for antagonists of the orexin 2 receptor (OX2R; HCRTR2), run by assay provider.; format: functional
Fatty acid synthase = Fatty acid synthase (Homo sapiens, UniProt P49327); assay: inhibition of human FAS-TE enzyme activity – biochemical, kinetic fluorescence intensity, dose response (AID 624326); format: functional;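 note: rate of fluorescence rise from hydrolysis of a fluorogenic O-methyl fluorescein ester substrate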
[9] = as §1, with “Fluorescence-based” for “Homogeneous time resolved fluorescence (HTRF)-based”, “cell-based high throughput” for “cell-based”, “CHO” for “CHO-K1”; format: functional
Jurkat = assay: blockers of NF-kB activation in T cells – Jurkat, luciferase reporter, luminescence, B- and T-cell, dose response (AID 489004); format: functional, cell-based; settings: Homo sapiens;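 note: NF-kB luciferase reporter Jurkat cells stimulated with PMA plus ionomycin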
[10] = target: T3, Orexin/Hypocretin receptor type 1 (Homo sapiens, UniProt O43613); assay: (§2) Fluorescence-based cell-based high throughput dose response assay for antagonists of the orexin 1 receptor (OX1R; HCRTR1). [Related pubchem assays (depositor defined):AID434989, AID435008, AID463079, AID485270, AID492963, AID492964, AID492965, AID493232, AID504717, AID504718]; format: functional
T3 sequence (O43613 whole entry): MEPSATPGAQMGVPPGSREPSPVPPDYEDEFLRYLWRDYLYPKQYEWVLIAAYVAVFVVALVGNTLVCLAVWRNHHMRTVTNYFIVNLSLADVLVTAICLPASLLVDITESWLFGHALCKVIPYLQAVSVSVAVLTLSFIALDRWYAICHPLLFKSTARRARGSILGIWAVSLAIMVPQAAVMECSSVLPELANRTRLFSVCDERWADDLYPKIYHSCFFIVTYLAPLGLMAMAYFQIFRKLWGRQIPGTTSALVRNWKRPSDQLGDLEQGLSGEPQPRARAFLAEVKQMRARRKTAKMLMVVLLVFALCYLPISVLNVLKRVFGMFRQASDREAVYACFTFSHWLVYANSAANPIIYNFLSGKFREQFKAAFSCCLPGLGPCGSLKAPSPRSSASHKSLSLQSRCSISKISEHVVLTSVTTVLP

[11] = target: T3, Orexin/Hypocretin receptor type 1; assay: as §2, with “Homogeneous Time Resolved Fluorescence (HTRF)-based” for “Fluorescence-based”; format: functional
Tumor necrosis factor [12] = target: T4, Tumor necrosis factor (Homo sapiens, UniProt P01375); assay: analog potency on TNFa NF-kB signaling – cell-based, set 3, SAR follow-up (AID 2801); format: functional
[13] = target: T5, Nucleotide-binding oligomerization domain-containing protein 1 (Homo sapiens, UniProt Q9Y239); assay: SAR analysis of compounds that inhibit NOD1 - Set 3. [Related pubchem assays (depositor defined):AID1566, AID1575, AID1578, AID1849, AID1852, AID2333, AID2335, AID2466]; format: functional
T5 sequence (Q9Y239 whole entry): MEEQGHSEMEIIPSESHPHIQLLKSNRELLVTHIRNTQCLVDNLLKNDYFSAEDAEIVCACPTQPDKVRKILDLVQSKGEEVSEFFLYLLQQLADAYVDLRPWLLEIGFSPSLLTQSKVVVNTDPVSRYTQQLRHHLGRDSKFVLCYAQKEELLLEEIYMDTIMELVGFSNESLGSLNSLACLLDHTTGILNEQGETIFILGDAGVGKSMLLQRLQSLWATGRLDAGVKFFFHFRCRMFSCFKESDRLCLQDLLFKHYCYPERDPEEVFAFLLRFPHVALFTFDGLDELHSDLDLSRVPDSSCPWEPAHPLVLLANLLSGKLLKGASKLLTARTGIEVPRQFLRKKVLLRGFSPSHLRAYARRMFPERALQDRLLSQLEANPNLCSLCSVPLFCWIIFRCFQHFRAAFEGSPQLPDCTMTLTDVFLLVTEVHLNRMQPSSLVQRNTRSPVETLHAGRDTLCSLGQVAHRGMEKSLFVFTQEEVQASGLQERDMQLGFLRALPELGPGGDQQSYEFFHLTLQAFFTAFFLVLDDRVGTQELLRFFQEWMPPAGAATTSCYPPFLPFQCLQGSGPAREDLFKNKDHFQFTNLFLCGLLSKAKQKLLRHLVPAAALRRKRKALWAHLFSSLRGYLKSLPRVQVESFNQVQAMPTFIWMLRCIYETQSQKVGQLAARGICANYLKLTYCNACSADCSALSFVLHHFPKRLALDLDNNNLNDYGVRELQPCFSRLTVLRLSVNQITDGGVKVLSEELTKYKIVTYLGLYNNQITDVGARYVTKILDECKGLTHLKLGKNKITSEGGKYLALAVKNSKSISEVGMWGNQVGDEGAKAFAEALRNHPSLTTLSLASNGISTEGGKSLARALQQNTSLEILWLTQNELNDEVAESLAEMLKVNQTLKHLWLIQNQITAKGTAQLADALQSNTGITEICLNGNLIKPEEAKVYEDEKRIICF

HEK293 [14] = assay: SAR analysis of compounds that are cytotoxic to HEK293 - Set 3. [Related pubchem assays (depositor defined):AID1575, AID1578, AID1848, AID1849, AID2001, AID2333, AID2334, AID2335, AID2337, AID2469]; format: functional, cell-based; settings: Homo sapiens
[15] = target: Nucleotide-binding oligomerization domain-containing protein 2 (Homo sapiens, UniProt Q9HC29); assay: inhibition of MDP-driven NOD2 NF-kB reporter – cell-based, set 3, SAR follow-up (AID 2799); format: functional
Tumor necrosis factor [16] = target: T4, Tumor necrosis factor; assay: analog potency on TNFa NF-kB signaling – cell-based, revised, SAR follow-up (AID 2337); format: functional
[17] = target: T5, Nucleotide-binding oligomerization domain-containing protein 1; assay: blockers of NOD1 pathway activity – revised, SAR follow-up (AID 2333); format: functional
HEK293 [18] = assay: cells; settings: Homo sapiens

T4 sequence (P01375 whole entry, the tested form may be a part): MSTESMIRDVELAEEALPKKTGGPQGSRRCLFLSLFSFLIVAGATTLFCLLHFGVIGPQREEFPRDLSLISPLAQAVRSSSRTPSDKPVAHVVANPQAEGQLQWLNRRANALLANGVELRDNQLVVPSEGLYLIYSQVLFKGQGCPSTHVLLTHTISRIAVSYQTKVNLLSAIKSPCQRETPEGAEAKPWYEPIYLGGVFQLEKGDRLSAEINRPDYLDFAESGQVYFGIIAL
Nucleotide-binding oligomerization domain-containing protein 2, sequence (Q9HC29 whole entry, the tested form may be a part): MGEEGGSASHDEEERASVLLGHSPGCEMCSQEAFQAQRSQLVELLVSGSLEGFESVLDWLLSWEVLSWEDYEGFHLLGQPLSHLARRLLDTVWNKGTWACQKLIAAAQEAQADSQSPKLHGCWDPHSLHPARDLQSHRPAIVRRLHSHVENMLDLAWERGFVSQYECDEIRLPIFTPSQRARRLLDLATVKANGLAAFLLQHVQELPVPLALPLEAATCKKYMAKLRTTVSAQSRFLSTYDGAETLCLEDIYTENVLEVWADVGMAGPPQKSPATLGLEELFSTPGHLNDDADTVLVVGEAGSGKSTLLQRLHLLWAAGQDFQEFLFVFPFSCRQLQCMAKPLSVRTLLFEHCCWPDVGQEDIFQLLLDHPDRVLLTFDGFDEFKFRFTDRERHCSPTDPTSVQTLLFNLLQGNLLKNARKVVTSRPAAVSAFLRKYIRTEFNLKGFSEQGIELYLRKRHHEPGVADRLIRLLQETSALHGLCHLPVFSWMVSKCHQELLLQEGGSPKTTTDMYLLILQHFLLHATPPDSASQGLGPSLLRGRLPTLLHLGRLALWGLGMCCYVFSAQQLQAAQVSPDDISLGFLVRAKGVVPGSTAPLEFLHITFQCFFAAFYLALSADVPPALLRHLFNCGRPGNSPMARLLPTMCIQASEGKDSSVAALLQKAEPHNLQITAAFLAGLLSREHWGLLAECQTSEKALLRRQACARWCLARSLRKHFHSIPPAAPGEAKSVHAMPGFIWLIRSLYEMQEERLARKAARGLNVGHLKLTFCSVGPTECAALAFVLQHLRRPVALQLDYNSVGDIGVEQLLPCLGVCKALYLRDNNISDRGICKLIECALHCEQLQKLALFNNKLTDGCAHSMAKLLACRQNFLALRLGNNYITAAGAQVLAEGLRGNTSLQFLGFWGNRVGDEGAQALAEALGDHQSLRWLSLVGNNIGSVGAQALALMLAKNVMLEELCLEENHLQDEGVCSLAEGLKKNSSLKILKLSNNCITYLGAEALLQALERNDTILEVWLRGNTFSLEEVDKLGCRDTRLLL
Fatty acid synthase, sequence (P49327 whole entry): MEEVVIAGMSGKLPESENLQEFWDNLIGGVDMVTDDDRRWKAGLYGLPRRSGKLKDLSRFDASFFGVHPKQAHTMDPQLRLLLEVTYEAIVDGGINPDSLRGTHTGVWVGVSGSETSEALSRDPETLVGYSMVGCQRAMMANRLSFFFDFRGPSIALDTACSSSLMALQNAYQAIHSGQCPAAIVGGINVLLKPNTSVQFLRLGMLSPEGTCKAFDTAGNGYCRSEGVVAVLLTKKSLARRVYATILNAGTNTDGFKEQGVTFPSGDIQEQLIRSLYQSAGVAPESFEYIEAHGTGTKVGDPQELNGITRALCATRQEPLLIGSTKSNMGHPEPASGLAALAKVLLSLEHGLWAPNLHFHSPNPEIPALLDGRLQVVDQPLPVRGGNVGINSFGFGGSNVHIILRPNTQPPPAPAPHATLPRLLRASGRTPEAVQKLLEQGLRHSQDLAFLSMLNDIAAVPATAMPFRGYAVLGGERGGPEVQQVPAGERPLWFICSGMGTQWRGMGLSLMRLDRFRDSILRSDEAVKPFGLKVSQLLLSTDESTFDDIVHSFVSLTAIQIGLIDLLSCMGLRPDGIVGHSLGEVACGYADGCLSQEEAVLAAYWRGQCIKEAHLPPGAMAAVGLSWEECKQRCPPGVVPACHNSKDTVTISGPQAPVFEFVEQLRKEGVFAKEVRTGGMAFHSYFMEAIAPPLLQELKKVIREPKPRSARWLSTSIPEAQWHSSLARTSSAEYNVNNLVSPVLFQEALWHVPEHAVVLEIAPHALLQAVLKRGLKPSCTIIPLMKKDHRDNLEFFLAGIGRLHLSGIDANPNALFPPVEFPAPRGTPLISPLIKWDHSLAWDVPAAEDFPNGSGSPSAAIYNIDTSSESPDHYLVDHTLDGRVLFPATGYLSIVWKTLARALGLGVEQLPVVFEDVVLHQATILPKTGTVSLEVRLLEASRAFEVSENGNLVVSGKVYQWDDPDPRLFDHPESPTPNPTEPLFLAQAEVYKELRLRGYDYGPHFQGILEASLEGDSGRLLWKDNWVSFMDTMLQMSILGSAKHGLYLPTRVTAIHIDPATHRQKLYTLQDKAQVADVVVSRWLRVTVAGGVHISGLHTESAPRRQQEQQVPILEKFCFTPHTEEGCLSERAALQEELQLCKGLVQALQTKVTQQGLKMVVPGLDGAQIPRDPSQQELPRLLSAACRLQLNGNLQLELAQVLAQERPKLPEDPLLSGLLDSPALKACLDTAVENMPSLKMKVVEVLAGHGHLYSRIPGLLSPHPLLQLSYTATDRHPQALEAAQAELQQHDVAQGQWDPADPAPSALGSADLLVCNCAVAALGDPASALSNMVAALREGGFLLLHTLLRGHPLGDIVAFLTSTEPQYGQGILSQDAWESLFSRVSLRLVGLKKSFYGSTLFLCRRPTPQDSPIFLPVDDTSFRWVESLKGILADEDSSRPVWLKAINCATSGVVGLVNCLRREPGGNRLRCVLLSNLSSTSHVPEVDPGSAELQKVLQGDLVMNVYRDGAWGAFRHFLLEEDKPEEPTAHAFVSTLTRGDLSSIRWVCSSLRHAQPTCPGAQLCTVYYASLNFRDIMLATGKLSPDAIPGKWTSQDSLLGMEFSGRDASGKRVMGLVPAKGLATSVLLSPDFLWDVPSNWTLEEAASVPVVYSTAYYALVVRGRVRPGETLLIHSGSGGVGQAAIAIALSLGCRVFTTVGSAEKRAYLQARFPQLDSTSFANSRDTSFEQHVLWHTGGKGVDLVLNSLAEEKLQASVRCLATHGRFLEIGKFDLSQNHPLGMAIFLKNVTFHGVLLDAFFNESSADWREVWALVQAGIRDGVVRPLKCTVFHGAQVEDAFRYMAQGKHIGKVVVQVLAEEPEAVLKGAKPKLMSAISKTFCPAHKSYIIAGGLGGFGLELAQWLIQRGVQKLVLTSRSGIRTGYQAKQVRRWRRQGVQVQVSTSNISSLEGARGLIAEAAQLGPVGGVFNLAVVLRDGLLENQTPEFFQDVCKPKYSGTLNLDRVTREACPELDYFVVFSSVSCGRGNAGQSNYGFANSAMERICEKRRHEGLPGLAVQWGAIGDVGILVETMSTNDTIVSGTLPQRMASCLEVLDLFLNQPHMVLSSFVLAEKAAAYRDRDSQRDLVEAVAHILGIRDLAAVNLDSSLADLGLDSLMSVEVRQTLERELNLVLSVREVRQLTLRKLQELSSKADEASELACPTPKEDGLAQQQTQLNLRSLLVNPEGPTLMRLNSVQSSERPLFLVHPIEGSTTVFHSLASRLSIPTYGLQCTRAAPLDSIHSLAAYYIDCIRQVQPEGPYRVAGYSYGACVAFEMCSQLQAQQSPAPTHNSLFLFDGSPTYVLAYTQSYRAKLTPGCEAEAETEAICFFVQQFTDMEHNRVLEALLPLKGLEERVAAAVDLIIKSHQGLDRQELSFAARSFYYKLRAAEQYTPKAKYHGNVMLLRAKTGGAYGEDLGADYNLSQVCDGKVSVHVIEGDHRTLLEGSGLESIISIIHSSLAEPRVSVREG
Sphingosine 1-phosphate receptor 2, sequence (O95136 whole entry): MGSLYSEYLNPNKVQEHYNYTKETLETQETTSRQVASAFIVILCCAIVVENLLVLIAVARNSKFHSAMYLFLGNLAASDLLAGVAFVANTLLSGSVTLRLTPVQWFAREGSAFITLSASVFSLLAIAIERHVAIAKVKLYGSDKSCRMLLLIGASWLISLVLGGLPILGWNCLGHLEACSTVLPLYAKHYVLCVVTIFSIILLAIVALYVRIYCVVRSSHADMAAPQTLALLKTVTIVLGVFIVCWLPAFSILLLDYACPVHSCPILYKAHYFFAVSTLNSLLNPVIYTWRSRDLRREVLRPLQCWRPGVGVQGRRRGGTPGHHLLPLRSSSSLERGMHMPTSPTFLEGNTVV

COc1ccccc1C(=O)Nc1nc(-c2ccc(S(=O)(=O)N3CCOCC3)cc2)cs1
AC50 [1]: 51.8 µM (active)
AC50 [2]: 2.34 µM (active)
AC50 [3]: 1.21 µM (active)
AC50 (INS1): 3.17 µM (active)
IC50 (Orexin receptor type 2 [4]): 5.93 µM (active)
IC50 [5]: 3.81 µM (active)
IC50 [6]: > 80 µM (inactive)
IC50 (CHO-K1): > 66.2 µM (inactive)
AC50 [7]: 4.34 µM (active)
IC50 (Orexin receptor type 2 [8]): 8.4 µM (active)
IC50 (Fatty acid synthase): 10.9 µM (active)
IC50 [9]: > 16.6 µM (inactive)
IC50 (Jurkat): 7.79 µM (active)
IC50 [10]: 17.5 µM (inactive)
IC50 [11]: 3.59 µM (active)

Nc1cc(-c2ccccc2)nn1S(=O)(=O)c1ccc(F)c(Cl)c1
IC50 (Tumor necrosis factor [12]): > 20 µM (inactive)
IC50 [13]: > 20 µM (inactive)
IC50 (HEK293 [14]): > 20 µM (inactive)
IC50 [15]: > 20 µM (inactive)

COc1ccc(NC(=O)c2ccc(CN3CCc4ccccc4C3)cc2)cc1
IC50 (Tumor necrosis factor [16]): 0.65 µM (active)
IC50 [17]: 0.513 µM (active)
IC50 (HEK293 [18]): > 20 µM (inactive)

COC(=O)CC1=NN(c2ccccc2)C(=O)/C1=C/Nc1ccc(C)cc1
IC50 (Tumor necrosis factor [16]): > 20 µM (inactive)
IC50 [17]: > 20 µM (inactive)
IC50 (HEK293 [18]): > 20 µM (inactive)

Reference: ChEMBL document CHEMBL1201862, “PubChem BioAssay data set” (2004)
